Results reported in article PMC8086144, “A novel peptide antagonist of the human growth hormone receptor” (The Journal of Biological Chemistry, 2021).

Target: T1, hPRLR (Homo sapiens, UniProt P16471)
T1 construct: T84 cells express high levels of hPRLR relative to hGHR (>1300:1); host or cells: T84 (human colon cancer), MALME-3M (human melanoma)
T1 sequence (P16471 25-622): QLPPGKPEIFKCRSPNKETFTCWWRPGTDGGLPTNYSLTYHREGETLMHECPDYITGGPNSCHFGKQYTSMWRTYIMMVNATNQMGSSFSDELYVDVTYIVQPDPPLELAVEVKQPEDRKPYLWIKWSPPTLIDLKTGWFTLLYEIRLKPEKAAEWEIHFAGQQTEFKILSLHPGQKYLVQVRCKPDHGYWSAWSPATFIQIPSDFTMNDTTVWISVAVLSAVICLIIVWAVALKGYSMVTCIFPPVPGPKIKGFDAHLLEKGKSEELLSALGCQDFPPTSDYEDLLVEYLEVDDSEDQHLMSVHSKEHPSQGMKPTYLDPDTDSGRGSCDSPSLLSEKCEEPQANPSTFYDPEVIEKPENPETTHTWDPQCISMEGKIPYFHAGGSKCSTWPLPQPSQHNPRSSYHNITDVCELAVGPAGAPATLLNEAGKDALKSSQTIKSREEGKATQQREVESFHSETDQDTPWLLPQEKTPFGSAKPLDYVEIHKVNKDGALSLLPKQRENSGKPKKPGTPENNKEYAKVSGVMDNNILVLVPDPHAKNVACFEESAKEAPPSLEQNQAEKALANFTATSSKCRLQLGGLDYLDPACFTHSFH
Assay: hPRL-induced pSTAT5 in T84 cells, Western blot
Format: cell-based
Conditions: 2.5 nM hPRL, 20 min, S1H concentration not given
Protocol: SK-MEL-28, MALME-3M, and T84 cells were grown and maintained in Eagle's Minimal Essential Medium. IM9 and L cells were grown in RPMI-1640 media and Dulbecco's modified Eagle's medium, respectively. All growth media was supplemented with 10% fetal bovine serum and 1× antibiotic-antimycotic […] solution. Cells were grown at 37 °C under a 5% CO2 atmosphere in a humidified incubator, and growth media was replaced every 48 h during incubation. No hGH was present in or added to the growth media unless specifically indicated. […]
Following treatment, the cells were harvested at the indicated time points, and the total protein was extracted. […] Sample protein concentration was quantified using a Bradford assay with bovine serum albumin as the protein standard. Absorbance at 595 nm was measured using a Spectramax 250 multimode plate reader (Molecular Devices) and processed using SoftmaxPro v4.7.1 software.
Cytosolic fractions from treated cells were thawed on ice, and 80 μg protein was loaded onto polyacrylamide gels for separation by SDS-PAGE. […] Chemiluminescence signals were detected using a GelDoc (BioRad) fluorescence imager. […]

inhibition of hPRL-induced pSTAT5: 13%
SMILES: CC[C@H](C)[C@H](NC(=O)[C@H](Cc1ccc(O)cc1)NC(C)=O)C(=O)N1CCC[C@H]1C(=O)N[C@@H](CCCCN)C(=O)N[C@@H](CCC(=O)O)C(=O)N[C@@H](CCC(N)=O)C(=O)N[C@@H](CCCCN)C(=O)N[C@@H](Cc1ccc(O)cc1)C(=O)N[C@@H](CO)C(=O)N[C@@H](Cc1ccccc1)C(=O)N[C@@H](CC(C)C)C(=O)N[C@@H](CCC(N)=O)C(=O)N[C@@H](CC(N)=O)C(=O)N1CCC[C@H]1C(=O)N[C@@H](CCC(N)=O)C(=O)N[C@H](C(N)=O)[C@@H](C)O [S1H]
